Test results from ChEMBL document CHEMBL3991943, “Pharmaceutical formulations comprising salts of a protein kinase inhibitor and methods of using same” (2013).

What was measured:
[1] = Solubility of the compound in water by HPLC analysis; type: physicochemical
[2] = Solubility of the compound in PBS buffer at pH 7; type: physicochemical

| Structure (SMILES) | solubility [1] | solubility [2] |
| --- | --- | --- |
| Cc1ccc(S(=O)(=O)O)cc1.S=C(NCc1ccc2c(c1)OCO2)N1CCN(c2ncnc3c2oc2ccccc23)CC1 | 1.87 µg/mL | – |
| CS(=O)(=O)O.S=C(NCc1ccc2c(c1)OCO2)N1CCN(c2ncnc3c2oc2ccccc23)CC1 | 5.96 µg/mL | 2.16 µg/mL |
| O=S(=O)(O)c1ccccc1.S=C(NCc1ccc2c(c1)OCO2)N1CCN(c2ncnc3c2oc2ccccc23)CC1 | 4.26 µg/mL | – |
| O=S(=O)(O)O.S=C(NCc1ccc2c(c1)OCO2)N1CCN(c2ncnc3c2oc2ccccc23)CC1 | 3.3 µg/mL | 1.7 µg/mL |
